Consider two molecules from ChEMBL document CHEMBL4376803, “Recent Advances in the Exploration of Therapeutic Analogues of Gramicidin S, an Old but Still Potent Antimicrobial Peptide” (J Med Chem, 2019).

≈ marks a conversion by molar mass, not a printed value. Square brackets hold non-standard residues; d marks the D form. Peptide text beside a SMILES is read from it. Orn = NCCC[C@H](N)C(=O)O

The nature of data set [1]: Therapeutic index, ratio of HD100 for hemolytic activity in human erythrocytes to MIC against Pseudomonas aeruginosa ATCC 27853. The settings on record: read-out: TI. The format is toxicity, cell-based.
Data set [2] can be described thus: Haemolytic activity in human erythrocytes at 100 ug/ml after 30 mins relative to control. The note with it: read-out: Activity. The format is ADME, cell-based, Erythrocyte.
Data set [3] in a line: (§1) Haemolytic activity in human erythrocytes. The format is ADME, cell-based, Erythrocyte. The settings on record: human erythrocytes.
Data set [4] has as its system Erythrocyte. Described as §1. The format is ADME, cell-based. The note with it: erythrocyte.
Data set [5] in a line: Therapeutic index, ratio of HD100 for hemolytic activity in human erythrocytes to MIC against methicillin-resistant Staphylococcus aureus ATCC 4330. The format is toxicity, cell-based. The settings on record: read-out: TI.
Data set [6] is described as follows: Hemolytic activity in sheep RBC incubated for 30 mins. The format is ADME, cell-based, Ovis aries, Erythrocyte. The note with it: sheep red blood cells.
Data set [7] in a line: Hemolytic activity against RBC (unknown origin) at 100 ul after 4 hrs. The format is ADME, cell-based, Erythrocyte. The settings on record: red blood cells (unknown origin).
Data set [8] is described as follows: Therapeutic index, ratio of HD100 for hemolytic activity in human RBC to MIC against Enterococcus faecalis ATCC 29212. The format is toxicity. The note with it: human red blood cells, read-out: TI.
Data set [9] can be described thus: Therapeutic index, ratio of HD100 for hemolytic activity in human erythrocytes to MIC against Staphylococcus aureus ATCC 29213. The format is toxicity, cell-based. The note with it: read-out: TI.
The test system of data set [10] is Erythrocyte. The data set can be described thus: Haemolytic activity in human RBC after 4 hrs by visual method. The format is ADME, cell-based.
Data set [11] is described as follows: Hemolytic activity in sheep erythrocytes. The format is ADME, cell-based, Ovis aries, Erythrocyte.
A short description of data set [12]: Therapeutic index, ratio of HC90 for hemolytic activity in human erythrocytes to MIC against Enterococcus faecalis ATCC 29212. The format is toxicity, cell-based. The settings on record: read-out: TI.
A short description of data set [13]: Haemolytic activity in human erythrocytes incubated for 30 mins. The format is ADME, cell-based, Erythrocyte.
Data set [14] can be described thus: Haemolytic activity in human RBC after 4 hrs. The settings on record: human red blood cells. The format is ADME, cell-based, Erythrocyte.
Data set [15] concerns the target Lipopolysaccharide (LPS). Description: Displacement of Dansyl-polymyxin from Pseudomonas aeruginosa LPS by fluorescence method. The settings on record: read-out: I50.
Data set [16] is described as follows: Therapeutic index, ratio of HC90 for hemolytic activity in human erythrocytes to MIC against Staphylococcus aureus ATCC 25923. The format is toxicity, cell-based. The settings on record: read-out: TI.
A short description of data set [17]: Therapeutic index, ratio of HC90 for hemolytic activity in human erythrocytes to MIC against Escherichia coli ATCC 25922. The format is toxicity, cell-based. The settings on record: read-out: TI.
A short description of data set [18]: Therapeutic index, ratio of HD100 for hemolytic activity in human RBC to MIC against Candida albicans. The format is toxicity. The settings on record: human red blood cells, read-out: TI.
The nature of data set [19]: Therapeutic index, ratio of HD100 for hemolytic activity in human RBC to MIC against Pseudomonas aeruginosa H187. The settings on record: human red blood cells, read-out: TI. The format is toxicity.
The nature of data set [20]: Therapeutic index, ratio of HD100 for hemolytic activity in human erythrocytes to MIC against Escherichia coli ATCC 25922. The format is toxicity, cell-based. The settings on record: read-out: TI.
Data set [21] in a line: Therapeutic index, ratio of HD100 for hemolytic activity in human RBC to MIC against Staphylococcus aureus K147. The format is toxicity. The settings on record: human red blood cells, read-out: TI.
A short description of data set [22]: Haemolytic activity in human RBC incubated for 1 hr. The format is ADME, cell-based, Erythrocyte. The settings on record: human red blood cells.
For data set [23], the system named is Erythrocyte. The data set can be described thus: Haemolytic activity in human RBC after 30 mins by spectrophotometric analysis. The format is ADME, cell-based. The note with it: 0.5 h.
Data set [24] can be described thus: Therapeutic index, ratio of HD100 for hemolytic activity in human RBC to MIC against Escherichia coli UB1005. The format is toxicity. The note with it: human red blood cells, read-out: TI.
The nature of data set [25]: Therapeutic index, ratio of HD100 for hemolytic activity in human erythrocytes to MIC against Enterococcus faecalis ATCC 29212. The format is toxicity, cell-based. The settings on record: read-out: TI.
Data set [26] in a line: Therapeutic index, ratio of HC90 for hemolytic activity in human erythrocytes to MIC against Staphylococcus epidermidis ATCC 12228. The format is toxicity, cell-based. The settings on record: read-out: TI.
The test system of data set [27] is Enterococcus faecalis. Description: Antibacterial activity against Enterococcus faecalis C625 after overnight incubation by microtiter dilution method. The format is functional.
Data set [28] deals with Staphylococcus epidermidis. Description: Antibacterial activity against Staphylococcus epidermidis C621 after 22 hrs by double dilution method. The note with it: C621, 22 h. The format is functional.
The subject of data set [29] is Escherichia coli. The data set can be described thus: Antibacterial activity against Escherichia coli DC2 after overnight incubation by microtiter dilution method. The format is functional.
In data set [30] the test system is Pseudomonas aeruginosa. The data set can be described thus: Antibacterial activity against Pseudomonas aeruginosa H188 after overnight incubation by microtiter dilution method. The format is functional.
Data set [31] deals with Staphylococcus aureus. Description: Antibacterial activity against Staphylococcus aureus K147 after overnight incubation by microtiter dilution method. The format is functional.

A word on the HC50: it is the concentration giving 50% haemolysis. A higher HC50 goes with weaker haemolysis. In the case of `CC(C)C[C@@H]1NC(=O)[C@H](CCCN)NC(=O)[C@H](C(C)C)NC(=O)[C@@H]2CCCN2C(=O)[C@@H](Cc2ccccc2)NC(=O)[C@H](CC(C)C)NC(=O)[C@H](CCCN)NC(=O)[C@H](C(C)C)NC(=O)[C@@H]2CCCN2C(=O)[C@@H](Cc2ccccc2)NC1=O` (cyclo(L[dF]PV[Orn]L[dF]PV[Orn])), the selectivity ratio in data set [1] is 1; in [5], 7.8; in data set [8], 4.5; in [9] it was 15.6; in [12], 1.5; in data set [16], 3. For the same molecule, the selectivity ratio in [17] worked out at 0.38; in [18], 4; in data set [19] it was 0.6; in data set [20] it was 2; in data set [21] it was 8.3; in [24], 2. Besides, the selectivity ratio in [25] stood at 7.8; in [26], 6. The hemolysis at 0.5 h, 100 ug/ml in [2] was determined as 80%. In addition, the concentration for 50% haemolysis (HC50) was 12 µg/mL in data set [3] and 25 to 35 µg/mL in [11]. This molecule also showed an Activity in data set [4] of 62.5 µg/mL. The HC50 at 0.5 h in data set [6] was in the range of 25 to 35 µg/mL; in data set [13], 5 to 10 µg/mL. For the same molecule, the HC50 at 4 h in data set [7] is 5 to 31.2 µg/mL; in data set [14], 17.5 µg/mL. The molecule further had an HD100 in [10] of 12.5 µg/mL. Also, the IC50 in [15] is 295 µM. In data set [22], this molecule yielded an HC50 at 1 h of 14.3 µg/mL. For the same molecule, in data set [23], the HC90 was determined as 12 µg/mL.

A word on the MIC: it is the least concentration at which growth counts as inhibited. As to `CC(C)C[C@@H]1NC(=O)[C@H](CCCN)NC(=O)[C@H](C(C)C)NC(=O)[C@@H]2CC[C@@H]3CC[C@H](NC(=O)[C@H](CC(C)C)NC(=O)[C@@H](CCCN)NC(=O)[C@H](C(C)C)NC(=O)[C@@H]4CC[C@@H]5CC[C@H](NC1=O)C(=O)N54)C(=O)N32`, the MIC in data set [27] came out at 25 µg/mL (≈ 24.7 µM); in [28], 12.5 µg/mL (≈ 12.3 µM); in [29], 25 µg/mL (≈ 24.7 µM); in data set [30] it was 12.5 µg/mL (≈ 12.3 µM); in [31], 12.5 µg/mL (≈ 12.3 µM). This molecule also came in with an HC90 in data set [10] of 400 µg/mL.
